pIC50: −log10 of the molar value.
Tests used:
[1] = molecular target: T1, human recombinant TDO2 enzyme (Homo sapiens, UniProt P48775); experiment: Assay for TDO2 enzymatic activity determination; assay type: biochemical; conditions: human recombinant TDO2, L-Trp 1 mM, kynurenine absorbance at 480 nm
T1 construct: made in house
Description: To measure the TDO2 activity, the procedure described in Dolusic et al. J. Med. Chem.; 2011, 54, […] was adapted: the reaction mixture contained (final concentrations) potassium phosphate buffer (50 mM, pH 7.5), ascorbic acid (0.25 M), methylene blue (0.125 μM), catalase (40 units/mL, from bovine liver, Sigma), and human recombinant TDO2 enzyme (prepared as described in Dolusic et al. J. Med. Chem.; 2011, 54, 5320-5334; 0.9 μg) without or with the compounds of the present invention at the indicated concentrations (total volume 112.5 μL). The reaction was initiated by the addition of 37.5 μL of L-Trp (final concentration 1 mM) at room temperature. The reaction was conducted at room temperature during one hour and stopped by the addition of 30 μL of 30% (w/v) trichloroacetic acid.
To convert N-formylkynurenine into kynurenine, the reaction mixture was incubated at 65° C. for 30 min. Then 150 μL of the reaction mixture was mixed with 120 μL of 2.5% (w/v) 4-(dimethylamino)-benzaldehyde in acetic acid and incubated for 5 min at room temperature. Kynurenine concentrations were determined by measuring the absorbance at 480 nm. A standard curve was made with pure kynurenine. The TDO activity was measured as described above using ten serial concentrations of the compounds of the present invention. Data were fitted using the Prism™ software (GraphPad Software, Inc.) using standard parameters.

[2] = molecular target: T2, murine mastocytoma P815 cells overexpressing hTDO2 (Homo sapiens, UniProt P48775); experiment: Cellular assay for TDO2 activity, hTDO2-overexpressing P815 cells; assay type: cell-based; conditions: P815 cells overexpressing hTDO2, overnight incubation, kynurenine in supernatant
T2 construct: expressed in transfected cells; host or cells: murine mastocytoma P815 cells
Description: The assay (adapted from Pilotte L et al., Proc Natl Acad Sci USA, 2012, 109(7), 2497-502) was performed in 96-well flat bottom plates seeded with murine mastocytoma P815 cells overexpressing hTDO2 (prepared as described in Pilotte et al., PNAS, 2012, 109(7), 2497-2502), at a concentration of 5×10^4 cells/well in a final volume of 200 μL. To determine TDO or IDO activity, the cells were incubated overnight at 37° C. at 5% CO2 in IMDM (Invitrogen) supplemented with 2% FBS and 2% penicillin/streptomycin in the presence of the compounds of the present invention, at different concentrations. The cells may be obtained from the American Type Cuylture Collecion [ATCC® TIB-64™ or commercially, e.g., from Sigma-Aldrich or Life Technologies.]
The plates were then centrifuged 5 min at 1000 rpm, and 100 μL of the supernatant were collected in a conical plate, 30 uL of TCA 30% were added and a further centrifugated at 3000×g for 10 minutes. 100 μL of the supernatant were collected in a flat bottomed plate and 100 μL of 2% (w/v) 4-(dimethylamino)-benzaldehyde in acetic acid and incubated for 5 min at room temperature. Kynurenine concentrations were determined by measuring the absorbance at 480 nm. A standard curve was made with pure kynurenine. The TDO activity was measured as described above using ten serial concentrations of the compounds of the present invention. Data were fitted using the Prism™ software (GraphPad Software, Inc.) using standard parameters.

[3] = molecular target: T3, human glioblastoma A172 cells, naturally expressing hTDO2 (Homo sapiens, UniProt P48775); experiment: Cellular assay for TDO2 activity, A172 cells; assay type: cell-based; conditions: overnight incubation, kynurenine in supernatant
T3 construct: human glioblastoma A172 cells, naturally expressing hTDO2; endogenous in cells; host or cells: human glioblastoma A172 cells (ATCC CRL-1620)
How it was run: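 A172 human glioblastoma cells naturally expressing TDO2, seeded at 1.25×10^4 cells/well, were incubated overnight at 37 °C in IMDM with 2% FBS and ten serial compound concentrations. Supernatant kynurenine, after TCA precipitation and Ehrlich's reagent, was read at 480 nm against a kynurenine standard curve; data curve-fitted.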

TDO2 = experiment: Pharmacodynamic assay for TDO2 in vivo activity: increase of blood Tryptophan levels in mice; design: species or system mouse; conditions: female BALB/c mice, 2 hours; for increase of circulating Tryptophan compared to vehicle-treated controls: p<0.0001
Description: The compounds of the present invention increase the amount of Tryptophan in mouse blood. Briefly, female BALB/c mice (7-8 weeks old) were treated with either a suspension of one of the compounds of the present invention in 0.5% hydroxypropyl methyl cellulose (HPMC) K4M (4000 mPa·s (cPs), Methocell™, Dow chemical)/0.25% Tween® 20 (Signma Aldrich) at different doses (30, 60 and 100 mg/kg), or with a vehicle control (0.5% HPMC K4M/0.25% Tween 20), by the oral route by gavage (dosing volume 5 mL/kg, 10 mice per group). After two hours, blood was harvested, plasma was prepared and the amount of Tryptophan present was determined by LC-MS-MS (HPLC column Unison UK-Phenyl, 75×4.6, 3 μm, flow rate 0.8 mL/min, 8 minutes gradient from 95% water+0.1% formic acid/5% Acetonitrile+0.1% formic acid to 5% water+0.1% formic acid/95% Acetonitrile+0.1% formic acid, retention time 2.4 min; API4000 MS-MS system from AB Sciex, ESI+ mode, parent ion 205.1, daughter ion 146.1).

T2 sequence (P48775 whole entry): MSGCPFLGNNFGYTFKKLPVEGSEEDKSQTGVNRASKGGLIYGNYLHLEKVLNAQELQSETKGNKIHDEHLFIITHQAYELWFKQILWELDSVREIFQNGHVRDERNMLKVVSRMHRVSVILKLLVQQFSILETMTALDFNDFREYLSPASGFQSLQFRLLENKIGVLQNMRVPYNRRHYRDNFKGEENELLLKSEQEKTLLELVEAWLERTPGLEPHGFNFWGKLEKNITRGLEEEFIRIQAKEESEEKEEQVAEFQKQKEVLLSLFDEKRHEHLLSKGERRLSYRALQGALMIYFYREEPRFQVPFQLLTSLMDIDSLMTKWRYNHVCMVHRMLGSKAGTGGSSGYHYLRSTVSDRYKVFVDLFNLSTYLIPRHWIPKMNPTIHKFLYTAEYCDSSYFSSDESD
T1 sequence (P48775 whole entry): as above
T3 sequence (P48775 whole entry): as above

Compound	pIC50 [2]	pIC50 [3]	further results
Cc1nc2cc(-c3c[nH]c4cc(F)ccc34)ccc2[nH]1 [Compound 26, 5-(6-fluoro-1H-indol-3-yl)-2-methyl-1H-benzo[d]imidazole]	6.82	–	pIC50 [1]: 6.41
Fc1ccc2c(-c3ccc4cn[nH]c4c3)c[nH]c2c1 [Compound 1, 6-(6-fluoro-1H-indol-3-yl)-1H-indazole]	6.81	6.75	pIC50 [1]: 6.23
CN1CCN(Cc2nc3ccc(-c4c[nH]c5cc(F)ccc45)cc3o2)CC1 [Compound 68, 6-(6-fluoro-1H-indol-3-yl)-2-((4-methylpiperazin-1-yl)methyl)benzo[d]oxazole]	7.11	6.66	–
CS(=O)(=O)NCc1nc2cc(-c3c[nH]c4cc(F)ccc34)ccc2o1 [Compound 70, N-((5-(6-fluoro-1H-indol-3-yl)benzo[d]oxazol-2-yl)methyl)methanesulfonamide]	6.60	6.36	–
NC(=O)Cn1c(=O)oc2cc(-c3c[nH]c4cc(F)ccc34)ccc21 [Compound 64, 2-(6-(6-fluoro-1H-indol-3-yl)-2-oxobenzo[d]oxazol-3(2H)-yl)acetamide]	6.75	6.30	–
Fc1ccc2c(-c3ccc4ocnc4c3)c[nH]c2c1 [Compound 47, 5-(6-fluoro-1H-indol-3-yl)benzo[d]oxazole]	7.00	6.32	–
Fc1ccc2c(-c3ccc4nc(CN5CCOCC5)oc4c3)c[nH]c2c1 [Compound 66, 6-(6-fluoro-1H-indol-3-yl)-2-(morpholinomethyl)benzo[d]oxazole]	6.69	6.55	–
CS(=O)(=O)NCc1nc2ccc(-c3c[nH]c4cc(F)ccc34)cc2o1 [Compound 74, N-((6-(6-fluoro-1H-indol-3-yl)benzo[d]oxazol-2-yl)methyl)methanesulfonamide]	7.14	6.82	–
CS(=O)(=O)CCc1nc2cc(-c3c[nH]c4cc(F)ccc34)ccc2[nH]1 [Compound 38, 5-(6-fluoro-1H-indol-3-yl)-2-(2-(methylsulfonyl)ethyl)-1H-benzo[d]imidazole]	6.30	6.29	–
CC(=O)NCc1nc2ccc(-c3c[nH]c4cc(F)ccc34)cc2o1 [Compound 75, N-((6-(6-fluoro-1H-indol-3-yl)benzo[d]oxazol-2-yl)methyl)acetamide]	7.04	6.84	–
Fc1ccc2c(-c3ccc4nc(CCN5CCNCC5)oc4c3)c[nH]c2c1 [Compound 110, 6-(6-fluoro-1H-indol-3-yl)-2-(2-(piperazin-1-yl)ethyl)benzo[d]oxazole]	–	6.62	pIC50 [1]: 5.79; Tryptophan concentration in plasma (average ± standard error of the mean) (TDO2; 30 mg/kg oral gavage): 125 ± 7 µM; increase of circulating Tryptophan compared to vehicle-treated controls (TDO2; 30 mg/kg oral gavage): 46%; Tryptophan concentration in plasma (average ± standard error of the mean) (TDO2; 60 mg/kg oral gavage): 130.3 µM; increase of circulating Tryptophan compared to vehicle-treated controls (TDO2; 60 mg/kg oral gavage): 52%; Tryptophan concentration in plasma (average ± standard error of the mean) (TDO2; 100 mg/kg oral gavage): 153.2 µM; increase of circulating Tryptophan compared to vehicle-treated controls (TDO2; 100 mg/kg oral gavage): 78%

— patent US20150266857A1, “NOVEL 3-INDOL SUBSTITUTED DERIVATIVES, PHARMACEUTICAL COMPOSITIONS AND METHODS FOR USE” (iTeos Therapeutics, priority 2014, published 2015)
